Experimental data taken from patent publication US6465429B1, “Antimicrobial cationic peptides” (priority 1995, dated 2002).

What was measured:
P. aeruginosa = assay: microbe, parasite or virus in culture; details: agent alone
Method: (§1) FICs are performed by checkerboard titrations of peptides in one dimension of a microtiter plate, and of antibiotics in the other dimension, for example. The FIC is calculated by looking at the impact of one antibiotic on the MIC of the other and vice versa. […] Preferably, an FIC of less than 0.5 is obtained for synergism. As used herein, FIC can be determined as follows: [formula]
(§2) Synergism is identified as an FIC of about ≦0.5.

A. calcoaceticus = assay: Synergy of peptide and antibiotic, MIC and FIC (checkerboard); assay type: cell-based; details: Acinetobacter calcoaceticus, agent alone
Method: as §1, §2

X. maltophila = assay: as above; assay type: cell-based; details: agent alone
Method: as §1, §2

Red Blood Cells = assay: Red Blood Cell lysis; assay type: cell-based
E. coli ML 35 = assay: Inner membrane permeabilization (β-galactosidase, ONPG); assay type: cell-based; details: 4 ug peptide
Method: Inner membrane permeability was determined by measurement in E. coli ML 35 of β-galactosidase activity using ONPG as a substrate. Normally ONPG cannot pass across the cytoplasmic membrane to permit hydrolysis by the cytoplasmic enzyme β-galactosidase. However, cationic peptides, by permeabilizing the inner membrane, unmasks this enzyme leading to color development as ONP is released. […] Addition of citrate increased the lag time before the peptides were able to permeabilize the membranes. When the experiments were executed in cation adjusted media (CAMHB), the lag time was increased up to 30 minutes.

E. cloacae = assay: Synergy of peptide and antibiotic, MIC and FIC (checkerboard); assay type: cell-based; details: Enterobacter cloacae, agent alone
Method: as §1, §2

[1] = Pseudomonas aeruginosa, P. aeruginosa isolate 27, strain 14644
[2] = Pseudomonas aeruginosa, P. aeruginosa isolate 28, strain 15036
[3] = A. calcoaceticus isolate 3, strain 27
[4] = A. calcoaceticus isolate 4, strain 28
[5] = X. maltophila isolate 35, strain 6
[6] = X. maltophila isolate 37, strain 3095
[7] = X. maltophila isolate 38, strain 7901
[8] = X. maltophila isolate 40, strain R1302-1
[9] = X. maltophila isolate 41, strain R4230
[10] = X. maltophila isolate 42, strain TF29-1
[11] = X. maltophila isolate 43, strain TF29-2
[12] = X. maltophila isolate 44, strain W6896-2
[13] = Pseudomonas aeruginosa, P. aeruginosa isolate 23, strain ATCC 27853
[14] = Pseudomonas aeruginosa, P. aeruginosa isolate 24, strain 34
[15] = Pseudomonas aeruginosa, P. aeruginosa isolate 25, strain 923-1
[16] = Pseudomonas aeruginosa, P. aeruginosa isolate 26, strain 3101
[17] = Pseudomonas aeruginosa, P. aeruginosa isolate 29, strain 15545
[18] = Pseudomonas aeruginosa, P. aeruginosa isolate 30, strain B3999-1
[19] = A. calcoaceticus isolate 1, strain ATCC 23055
[20] = A. calcoaceticus isolate 5, strain 8220
[21] = A. calcoaceticus isolate 6, strain 8221
[22] = A. calcoaceticus isolate 7, strain 8222
[23] = A. calcoaceticus isolate 8, strain 8223
[24] = A. calcoaceticus isolate 9, strain 8224
[25] = A. calcoaceticus isolate 10, strain 8225
[26] = A. calcoaceticus isolate 11, strain 8226
[27] = E. cloacae isolate 12, strain ATCC 13047
[28] = E. cloacae isolate 13, strain 37-1
[29] = E. cloacae isolate 14, strain 938-2
[30] = E. cloacae isolate 15, strain B5546
[31] = E. cloacae isolate 16, strain R4148
[32] = E. cloacae isolate 17, strain R4148-2
[33] = E. cloacae isolate 18, strain 3077
[34] = E. cloacae isolate 19, strain 3356
[35] = E. cloacae isolate 20, strain 14269
[36] = E. cloacae isolate 21, strain 14661
[37] = E. cloacae isolate 22, strain 18801

O=C(O)c1cn(C2CC2)c2cc(N3CCNCC3)c(F)cc2c1=O [Ciprofloxacin]
MIC (P. aeruginosa; [1]): 32 µg/mL | MIC (P. aeruginosa; [2]): 16 µg/mL | MIC (A. calcoaceticus; [3]): 8 µg/mL | MIC (A. calcoaceticus; [4]): 8 µg/mL | MIC (X. maltophila; [5]): 4 µg/mL | MIC (X. maltophila; X. maltophila isolate 36, strain 16): 8 µg/mL | MIC (X. maltophila; [6]): 16 µg/mL | MIC (X. maltophila; [7]): 32 µg/mL | MIC (X. maltophila; [8]): 4 µg/mL | MIC (X. maltophila; [9]): 4 µg/mL | MIC (X. maltophila; [10]): 8 µg/mL | MIC (X. maltophila; [11]): 8 µg/mL | MIC (X. maltophila; [12]): 4 µg/mL | MIC (X. maltophila; X. maltophila isolate 45, strain W11291): 4 µg/mL

H-KWKSFIKKLTSAAKKVVTTAKPLISS-OH [MBI 26]
RBC Lysis (Red Blood Cells): >55 µg/mL | effect of 5 mM Mg++ on inner membrane permeabilization (E. coli ML 35; +5 mM Mg): large inhibitory effect | effect of 100 mM NaCl on inner membrane permeabilization (E. coli ML 35; +100 mM NaCl): little effect

C[C@@H](O)[C@H]1C(=O)N2C(C(=O)O)=C(SCCN=CN)C[C@H]12 [Imipenem]
MIC (P. aeruginosa; [13]): 8 µg/mL | MIC (P. aeruginosa; [14]): 512 µg/mL | MIC (P. aeruginosa; [15]): 4 µg/mL | MIC (P. aeruginosa; [16]): 8 µg/mL | MIC (P. aeruginosa; [1]): 16 µg/mL | MIC (P. aeruginosa; [2]): 16 µg/mL | MIC (P. aeruginosa; [17]): 256 µg/mL | MIC (P. aeruginosa; [18]): 256 µg/mL | MIC (A. calcoaceticus; [19]): 2 µg/mL | MIC (A. calcoaceticus; [4]): 16 µg/mL | MIC (A. calcoaceticus; [20]): 2 µg/mL | MIC (A. calcoaceticus; [21]): 1 µg/mL | MIC (A. calcoaceticus; [22]): 4 µg/mL | MIC (A. calcoaceticus; [23]): 2 µg/mL | MIC (A. calcoaceticus; [24]): 2 µg/mL | MIC (A. calcoaceticus; [25]): 2 µg/mL | MIC (A. calcoaceticus; [26]): 4 µg/mL | MIC (A. calcoaceticus; A. calcoaceticus isolate 2, strain 23): 512 µg/mL | MIC (E. cloacae; [27]): 1 µg/mL | MIC (E. cloacae; [28]): 2 µg/mL | MIC (E. cloacae; [29]): 4 µg/mL | MIC (E. cloacae; [30]): 2 µg/mL | MIC (E. cloacae; [31]): 4 µg/mL | MIC (E. cloacae; [32]): 2 µg/mL | MIC (E. cloacae; [33]): 4 µg/mL | MIC (E. cloacae; [34]): 4 µg/mL | MIC (E. cloacae; [35]): 4 µg/mL | MIC (E. cloacae; [36]): 2 µg/mL | MIC (E. cloacae; [37]): 2 µg/mL

NC[C@H]1O[C@H](O[C@H]2[C@H](O)[C@@H](O[C@H]3O[C@H](CO)[C@@H](O)[C@H](N)[C@H]3O)[C@H](N)C[C@@H]2N)[C@H](N)C[C@@H]1O [Tobramycin]
MIC (P. aeruginosa; [13]): 1 µg/mL | MIC (P. aeruginosa; [14]): 64 µg/mL | MIC (P. aeruginosa; [15]): 1 µg/mL | MIC (P. aeruginosa; [16]): 1 µg/mL | MIC (P. aeruginosa; [1]): 2 µg/mL | MIC (P. aeruginosa; [2]): 1 µg/mL | MIC (P. aeruginosa; [17]): 2 µg/mL | MIC (P. aeruginosa; [18]): 2 µg/mL | MIC (P. aeruginosa; Pseudomonas aeruginosa, P. aeruginosa isolate 31, strain U7688-1): 1 µg/mL | MIC (P. aeruginosa; Pseudomonas aeruginosa, P. aeruginosa isolate 32, strain W2897-1): 1 µg/mL | MIC (P. aeruginosa; Pseudomonas aeruginosa, P. aeruginosa isolate 33, strain W5483-2): 1 µg/mL | MIC (P. aeruginosa; Table 33, P. aeruginosa isolate 23, strain ATCC 27853): 1 μg · mL^1 | MIC (P. aeruginosa; Table 33, P. aeruginosa isolate 24, strain 34): 64 μg · mL^1 | MIC (P. aeruginosa; Table 33, P. aeruginosa isolate 25, strain 923-1): 1 μg · mL^1 | MIC (P. aeruginosa; Table 33, P. aeruginosa isolate 26, strain 3101): 1 μg · mL^1 | MIC (P. aeruginosa; Table 33, P. aeruginosa isolate 27, strain 14644): 1 μg · mL^1 | MIC (P. aeruginosa; Table 33, P. aeruginosa isolate 28, strain 15036): 1 μg · mL^1 | MIC (P. aeruginosa; Table 33, P. aeruginosa isolate 29, strain 15545): 2 μg · mL^1 | MIC (P. aeruginosa; Table 33, P. aeruginosa isolate 30, strain B3999-1): 1 μg · mL^1 | MIC (P. aeruginosa; Table 33, P. aeruginosa isolate 31, strain U7688-1): 2 μg · mL^1 | MIC (P. aeruginosa; Table 33, P. aeruginosa isolate 32, strain W2897-1): 1 μg · mL^1 | MIC (P. aeruginosa; Table 33, P. aeruginosa isolate 33, strain W5483-2): 2 μg · mL^1 | MIC (A. calcoaceticus; [19]): 4 µg/mL | MIC (A. calcoaceticus; [3]): 1 µg/mL | MIC (A. calcoaceticus; [4]): 128 µg/mL | MIC (A. calcoaceticus; [20]): 4 µg/mL | MIC (A. calcoaceticus; [21]): 4 µg/mL | MIC (A. calcoaceticus; [22]): 4 µg/mL | MIC (A. calcoaceticus; [23]): 4 µg/mL | MIC (A. calcoaceticus; [24]): 4 µg/mL | MIC (A. calcoaceticus; [25]): 4 µg/mL | MIC (A. calcoaceticus; [26]): 4 µg/mL | MIC (E. cloacae; [27]): 1 µg/mL | MIC (E. cloacae; [28]): 1 µg/mL | MIC (E. cloacae; [29]): 2 µg/mL | MIC (E. cloacae; [30]): 2 µg/mL | MIC (E. cloacae; [31]): 1 µg/mL | MIC (E. cloacae; [32]): 1 µg/mL | MIC (E. cloacae; [33]): 1 µg/mL | MIC (E. cloacae; [34]): 1 µg/mL | MIC (E. cloacae; [35]): 1 µg/mL | MIC (E. cloacae; [36]): 1 µg/mL | MIC (E. cloacae; [37]): 1 µg/mL | MIC (X. maltophila; [5]): 4 µg/mL | MIC (X. maltophila; [6]): 32 µg/mL | MIC (X. maltophila; [7]): 32 µg/mL | MIC (X. maltophila; X. maltophila isolate 39, strain B3110.1): 32 µg/mL | MIC (X. maltophila; [8]): 32 µg/mL | MIC (X. maltophila; [9]): 16 µg/mL | MIC (X. maltophila; [10]): 2 µg/mL | MIC (X. maltophila; [11]): 2 µg/mL | MIC (X. maltophila; [12]): 16 µg/mL
